Data on 27 molecules can be found in US6645977B1 (priority 1997, dated 2003).

Values joined by “and” are separate entries in the source; they are usually repeats but may differ in a detail not shown here. Equal values may be shown once. Where a name gives a salt, the structure may show the parent alone. Read-outs that look alike come from different tables or passages of the source.

Data set [1] deals with nAChRs comprised of α4 and β2 subunits (labelled by 3H-cytisine) (Rattus norvegicus, UniProt P09483+P12390). The data set can be described thus: In vitro inhibition of 3H-cytisine binding. As to the method: In vitro inhibition of ^3H-cytisine binding
Sequence of nAChRs comprised of α4 and β2 subunits (labelled by 3H-cytisine) (P09483 31-630): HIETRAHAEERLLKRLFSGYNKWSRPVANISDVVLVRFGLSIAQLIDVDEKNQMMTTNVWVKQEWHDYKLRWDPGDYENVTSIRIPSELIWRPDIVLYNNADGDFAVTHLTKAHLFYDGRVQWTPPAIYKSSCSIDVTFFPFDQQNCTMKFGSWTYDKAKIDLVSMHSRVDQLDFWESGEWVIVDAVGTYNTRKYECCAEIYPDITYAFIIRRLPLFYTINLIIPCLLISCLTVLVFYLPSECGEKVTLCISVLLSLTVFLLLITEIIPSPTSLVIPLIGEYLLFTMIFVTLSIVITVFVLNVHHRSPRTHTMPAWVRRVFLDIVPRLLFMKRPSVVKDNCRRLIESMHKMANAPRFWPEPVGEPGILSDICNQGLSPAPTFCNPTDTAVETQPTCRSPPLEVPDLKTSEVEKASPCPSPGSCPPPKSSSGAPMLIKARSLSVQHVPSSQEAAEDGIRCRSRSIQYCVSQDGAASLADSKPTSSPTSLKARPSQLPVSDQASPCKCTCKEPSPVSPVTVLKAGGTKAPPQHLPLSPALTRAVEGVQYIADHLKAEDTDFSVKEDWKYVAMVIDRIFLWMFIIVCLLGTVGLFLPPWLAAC
Sequence of nAChRs comprised of α4 and β2 subunits (labelled by 3H-cytisine) (P12390 25-500): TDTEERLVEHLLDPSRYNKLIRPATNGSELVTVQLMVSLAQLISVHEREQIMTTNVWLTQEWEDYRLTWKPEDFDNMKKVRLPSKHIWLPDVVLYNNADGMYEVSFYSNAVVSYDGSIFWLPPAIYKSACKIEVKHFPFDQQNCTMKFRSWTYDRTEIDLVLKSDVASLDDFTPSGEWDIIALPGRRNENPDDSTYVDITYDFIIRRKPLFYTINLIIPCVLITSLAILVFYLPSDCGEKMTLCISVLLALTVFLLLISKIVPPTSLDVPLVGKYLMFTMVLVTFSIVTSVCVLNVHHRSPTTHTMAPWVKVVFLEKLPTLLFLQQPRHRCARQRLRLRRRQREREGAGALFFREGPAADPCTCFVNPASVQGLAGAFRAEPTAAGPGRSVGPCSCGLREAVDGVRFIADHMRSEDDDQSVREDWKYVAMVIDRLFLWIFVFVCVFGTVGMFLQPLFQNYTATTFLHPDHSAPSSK
The predominant subtype with high affinity for nicotine is comprised of α4 and β2 subunits. nAChRs of the latter type can selectively be labelled by the nicotine modulator ^3H-cytisine.
Tissue Preparation: Preparations are performed at 0-4° C. unless otherwise indicated. […] The homogenate is centrifuged at 27,000×g for 10 min. The supernatant is discarded and the pellet is resuspended in fresh buffer and centrifuged a second time. The final pellet is resuspended in fresh buffer (35 ml per g of original tissue) and used for binding assays.
Assay: Aliquots of 500 μl homogenate are added to 25 μl of test solution and 25 μl of ^3H-cytisine (1 nM, final concentration), mixed and incubated for 90 min at 2° C. Non-specific binding is determined using (−)-nicotine (100 μM, final concentration). After incubation the samples are added 5 ml of ice-cold buffer and poured directly onto Whatman GF/C glass fibre filters under suction and immediately washed with 2×5 ml ice-cold buffer. The amount of radioactivity on the filters is determined by conventional liquid scintillation counting. Specific binding is total binding minus non-specific binding.

Data set [2] concerns the target nAChR labelled by 3H-α-bungarotoxin (α7 subunits) (Rattus norvegicus, UniProt Q05941). Put plainly: biochemical. Type of data set: binding.
The conditions of data set [3]: relative to morphine; cited from earlier work.
Where [4] appears, read: 3H-cytisine IC50, rat cerebral cortex homogenate, 1 nM 3H-cytisine, 90 min at 2° C.
Where [5] appears, read: read-out: 3H-α-bungarotoxin IC50.
Setting [6] is: rat cerebral cortex homogenate, 1 nM 3H-cytisine, 90 min at 2° C., read-out: 3H-cytisine IC50.

Sequence of nAChR labelled by 3H-α-bungarotoxin (α7 subunits) (Q05941 23-502): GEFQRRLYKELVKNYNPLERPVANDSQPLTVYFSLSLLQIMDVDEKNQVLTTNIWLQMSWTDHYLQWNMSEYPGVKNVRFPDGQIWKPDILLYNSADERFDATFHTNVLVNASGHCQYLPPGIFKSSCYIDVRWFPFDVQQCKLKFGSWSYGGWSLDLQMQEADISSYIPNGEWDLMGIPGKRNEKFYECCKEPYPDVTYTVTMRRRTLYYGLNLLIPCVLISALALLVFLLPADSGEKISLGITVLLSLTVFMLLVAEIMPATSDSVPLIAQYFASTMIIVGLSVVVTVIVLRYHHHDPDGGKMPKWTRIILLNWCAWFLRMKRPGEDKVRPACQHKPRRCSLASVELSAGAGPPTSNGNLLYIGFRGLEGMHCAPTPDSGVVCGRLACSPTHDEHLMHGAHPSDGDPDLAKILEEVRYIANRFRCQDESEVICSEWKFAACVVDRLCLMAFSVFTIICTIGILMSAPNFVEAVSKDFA

`CN1C2C=C(c3ccc[se]3)CC1CC2` (racemic) registered a melting point of 176.8 to 178.3 °C.

As to `CN1C2C=C(c3cc4ccccc4o3)CC1CC2.O=C(O)/C=C/C(=O)O` (racemic), the melting point was 188.3 to 190.9 °C and 188.5 to 191.2 °C. In turn, `CN1C2C=C(c3cccs3)CC1CC2.O=C(O)/C=C/C(=O)O` (racemic) displayed a melting point of 141.5 to 143.5 °C. Consider `CC(=O)C1=CC2CCC(C1)N2C.O=C(O)/C=C/C(=O)O` (racemic), for which the melting point is 148.5 to 150 °C. Same read-out and setting: under `CN1C2C=C(c3csc4ccccc34)CC1CC2.O=C(O)/C=C/C(=O)O` (racemic) stands 146.6 to 149.5 °C; under `CN1C2C=C(c3nc4ccccc4s3)CC1CC2.O=C(O)/C=C/C(=O)O` (racemic), 195 to 196.8 °C.

Turning to `CN1C2C=C(c3sccc3-c3ccoc3)CC1CC2.O=C(O)/C=C/C(=O)O` (racemic), the melting point is 187 to 189 °C. The molecule `CN1C2C=C(c3nccs3)CC1CC2.O=C(O)/C=C/C(=O)O` (racemic) registered a melting point of 196.3 to 198.5 °C. Turning to `CN1C2C=C(c3ccsc3)CC1CC2.Cl` (racemic), the melting point lay in the range of 117 to 118.5 °C. As for `C1=C(c2cc3ccccc3o2)CC2CCC1N2` (racemic) (as salt: fumaric acid salt) [Compound 1e, (±)-3-(2-Benzofuryl)-8-H-8-azabicyclo[3.2.1]oct-2-ene Fumaric Acid Salt], the melting point lay in the range of 201 to 204 °C.

In the case of `CN1C2C=C(c3oc4ccccc4c3Br)CC1CC2` (racemic) (as salt: fumaric acid salt) [Compound 2f, (±)-3-[2-(3-Bromobenzofuryl)]-8-methyl-8-azabicyclo[3.2.1]oct-2-ene Fumaric Acid Salt], the melting point is 161.4 to 163.3 °C. The same measure, in the same setting: the value for `CN1C2C=C(c3ccc(Cl)nc3)CC1CC2` (racemic) (as salt: fumaric acid salt) [Compound 5b, (±)-8-Methyl-3-[3-(6-chloro)pyridyl]-8-azabicyclo[3.2.1]oct-2-ene Fumaric Acid Salt] was 140 to 142 °C.

For `C1=C(c2cccnc2)CC2CCC1N2Cc1ccccc1.O=C(O)/C=C/C(=O)O` (racemic) [Compound 1a, (±)-8-Benzyl-3-(3-pyridyl)-8-azabicyclo[3.2.1]oct-2-ene Fumaric Acid Salt], the melting point lay in the range of 142 to 146 °C. The molecule further showed an IC50 in data set [1] (setting [4]) of 23 nM. Further, the IC50 in data set [2] (setting [5]) was 500 nM.

Turning to `CN1C2C=C(c3cc4ccccc4o3)CC1CC2` (racemic) [Compound 1d, (±)-3-(2-Benzofuryl)-8-methyl-8-azabicyclo[3.2.1]oct-2-ene Fumaric Acid Salt], the IC50 in data set [1] (setting [4]) was determined as 120000 nM; in data set [2] (setting [5]) it was 170 nM. Regarding `C1=C(c2cc3ccccc3o2)CC2CCC1N2` (racemic) [Compound 1e, (±)-3-(2-Benzofuryl)-8-H-8-azabicyclo[3.2.1]oct-2-ene Fumaric Acid Salt], the IC50 was more than 10000 nM in data set [1] (setting [6]) and 800 nM in data set [2]. In the case of `CN1C2C=C(c3sccc3Br)CC1CC2` (racemic) [Compound 1f, (±)-3-[2-(3-bromothienyl)]-8-methyl-8-azabicyclo[3.2.1]oct-2-ene Fumaric Acid Salt], the figures for the IC50 in data set [1] (setting [6]) and in data set [2] (setting [5]) were 2200 nM and 82 nM, respectively. For the molecule `CN1C2C=C(c3cccnc3)CC1CC2` (racemic) [Compound 2a, (±)-8-Methyl-3-(3-pyridyl)-8-azabicyclo[3.2.1]oct-2-ene Fumaric Acid Salt], the IC50 was 22 nM in data set [1] and 550 nM in data set [2]. For `CN1C2C=C(c3cc4ccccc4s3)CC1CC2` (racemic) [Compound 2c, (±)-3-(2-Benzothienyl)-8-methyl-8-azabicyclo[3.2.1]oct-2ene], the melting point lay in the range of 81 to 83.6 °C. The half-maximal inhibitory concentration (IC50) in data set [1] (setting [4]) came to 63800 nM. For the same molecule, the half-inhibitory concentration (IC50) in data set [2] (setting [5]) was 100 nM. In turn, `CN1C2C=C(c3cc4ccccc4s3)CC1CC2.Cl` (racemic) [Compound 2d, (±)-3-(2-Benzothienyl)-8-methyl-8-azabicyclo[3.2.1]oct-2-ene Hydrochloride] showed a melting point of more than 250 °C. The IC50 in data set [1] (setting [4]) amounted to 110000 nM. In addition, in data set [2] (setting [5]), the IC50 was found to be 67 nM. On to `CN1C2C=C(c3oc4ccccc4c3Br)CC1CC2` (racemic) [Compound 2f, (±)-3-[2-(3-Bromobenzofuryl)]-8-methyl-8-azabicyclo[3.2.1]oct-2-ene Fumaric Acid Salt], for which the IC50 in data set [1] (setting [6]) came out at 30000 nM; in data set [2] (setting [5]), 1300 nM. For `CN1C2C=C(c3cnc4ccccc4c3)CC1CC2.O=C(O)/C=C/C(=O)O` (racemic) [Compound 3a, (±)-8-Methyl-3-(3-quinolinyl)-8-azabicyclo[3.2.1]oct-2-ene Fumaric Acid Salt], the melting point is 140.8 to 143.8 °C. Also, in data set [1] (setting [4]), the IC50 worked out at 1300 nM. Moreover, the IC50 in data set [2] (setting [5]) came to 1440 nM.

For the molecule `CC(=O)Nc1cccc(C2=CC3CCC(C2)N3C)c1.O=C(O)/C=C/C(=O)O` (racemic) [Compound 3c, (±)-3-(3-Acetamidophenyl)-8-methyl-8-azabicyclo[3.2.1]oct-2-ene Fumaric Acid Salt], the melting point lay within 195.3 to 196.9 °C. In data set [1] (setting [6]), the IC50 was found to be 17000 nM. Moreover, the half-inhibitory concentration (IC50) in data set [2] was 640 nM. As to `CCN1C2C=C(c3cc4ccccc4o3)CC1CC2.O=C(O)/C=C/C(=O)O` (racemic) [Compound 3e, (±)-3-(2-Benzofuryl)-8ethyl-8-azabicyclo[3.2.1]oct-2-ene Fumaric Acid Salt], the melting point was in the range of 197 to 203 °C. Moreover, the IC50 in data set [1] (setting [4]) is more than 10000 nM. Moreover, the IC50 in data set [2] (setting [5]) amounted to 510 nM. In the same order, the values of `CN1C2C=C(c3coc4ccccc34)CC1CC2.O=C(O)/C=C/C(=O)O` (racemic) [Compound 4a, (±)-3-(3-Benzofuryl)-8-methyl-8-azabicyclo[3.2.1]oct-2-ene Fumaric Acid Salt] are 140.9 to 142.8 °C, 2700 nM and 3500 nM. `CN1C2C=C(c3cccc(N)c3)CC1CC2.O=C(O)/C=C/C(=O)O` (racemic) [Compound 4c, (±)-3-(3-Aminophenyl) 8-methyl-8-azabicyclo[3.2.1]oct-2-ene Fumaric Acid Salt] had a melting point of 195.3 to 196.9 °C. Moreover, in data set [1], the half-inhibitory concentration (IC50) stood at 30 nM. In addition, the IC50 in data set [2] (setting [5]) was found to be 440 nM. In the case of `CN1C2C=C(c3ccc(Cl)nc3)CC1CC2` (racemic) [Compound 5b, (±)-8-Methyl-3-[3-(6-chloro)pyridyl]-8-azabicyclo[3.2.1]oct-2-ene Fumaric Acid Salt], the values for the IC50 in data set [1] (setting [6]) and in data set [2] were 20 nM and 1900 nM, respectively.

Take `Clc1ccc(C2CC3CCC2N3)cn1` (stereo not shown) [Epibatidine]: the approximate analgesic potency in data set [3] is recorded as ~500 times that of morphine.
